Laboratory results published in patent US11214803B2, “Modulators of YAP1 expression” (Ionis Pharmaceuticals, Inc., priority 2019, dated 2022).
Strand notation (5' to 3'): a small letter for the sugar, then the base; units joined by * are phosphorothioate-linked, units joined directly phosphodiester-linked; [ ] holds rarer units or linkages, { } end groups; capitals alone tell only the bases. e = 2'-O-(2-methoxyethyl) (MOE); k = constrained ethyl (cEt); [5mC] = 5-methylcytosine; d = 2'-deoxy (DNA); m = 2'-O-methyl

System: Yap1 mRNA
Assay: Antisense inhibition of human Yap1 in SNU-449 cells by modified oligonucleotides, single dose (Example 5, RTS36584)
Assay type: cell-based
Summary of the method: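 SNU-449 cells were given 2,000 nM oligonucleotide by free uptake for about 48 h. Yap1 mRNA was then measured by RT-qPCR with primer probe set RTS36584, normalized to total RNA by RIBOGREEN and expressed as percent of untreated control.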

[1] = Table 42 (separate experiment), SNU-449 cells, 10,000 cells per well, free uptake, 2,000 nM modified oligonucleotide, approximately 48 hours, RTS36584, normalized to RIBOGREEN, Yap1 mRNA relative to untreated control cells
[2] = Table 44 experiment, SNU-449 cells, 10,000 cells per well, free uptake, 2,000 nM, approximately 48 hours, RTS36584, Yap1 mRNA normalized to RIBOGREEN, relative to untreated control cells
[3] = Table 43 experiment, SNU-449 cells, 10,000 cells per well, free uptake, 2,000 nM, approximately 48 hours, RTS36584, Yap1 mRNA normalized to RIBOGREEN, relative to untreated control cells
[4] = Table 41, SNU-449 cells, 10,000 cells per well, free uptake, 2,000 nM modified oligonucleotide, approximately 48 hours, RTS36584, normalized to RIBOGREEN, Yap1 mRNA relative to untreated control cells
[5] = Table 52, Yap1 mRNA, modified oligonucleotides targeting SEQ ID NO: 1 and 2
[6] = Table 46, Yap1 mRNA as percent of untreated control, SNU-449 cells, single dose
[7] = Table 45, Yap1 mRNA as percent of untreated control, SNU-449 cells, single dose
[8] = Table 51, Yap1 mRNA remaining as percent of untreated control (UT), SNU-449 cells, single dose

In the case of “1198684 (antisense kA*kA*d[5mC]*dT*d[5mC]*dT*dT*dA*dT*dA*dT*dG*kG*eT*kT*eT) [Compound 1198684]”, the “YAP1 (% UTC)” value [1] is reported as 75 % UTC.
In the case of “1198901 (kT*kA*dG*dA*dG*dT*dA*dT*dG*dT*dG*kG*d[5mC]*kA*dA*kT; antisense) [Compound 1198901]”, the “YAP1 (% UTC)” value [2] is reported as 28 % UTC.
“1198275 (kT*kA*dA*dG*dG*dT*dT*dT*d[5mC]*d[5mC]*d[5mC]*eA*eG*eA*kT*kT; antisense) [Compound 1198275]” was tested, and the “YAP1 (% UTC)” value [3] was 52 % UTC.
With “1198770 (k[5mC]*eT*kT*dA*dT*dA*dT*dG*dG*dT*dT*dT*eT*eG*kT*kG; antisense) [Compound 1198770]” the “YAP1 (% UTC)” value [4] was 40 % UTC.
“1200820 (kG*kG*kA*dA*dG*mA*dT*d[5mC]*dT*dG*dA*dA*dA*k[5mC]*kT*k[5mC]; antisense) [Compound 1200820]” was tested, and the “YAP1 (% UT)” value [5] was 24 % UT.
In the case of “1198870 (kT*kA*dT*dG*dT*dA*dA*dT*dA*dT*dT*kG*e[5mC]*kA*eA*kT; antisense) [Compound 1198870]”, the “YAP1 (% UT)” value [6] is reported as 86 % UT.
In the case of “1198679 (antisense TTATATGGTTTTGTGT; cEt/MOE gapmer, phosphorothioate, chemistry not fully specified) [Compound 1198679]”, the “YAP1 (% UTC)” value [1] is reported as 54 % UTC.
In the case of “1197223 (antisense kT*kA*kA*dG*dT*dA*dA*dG*dG*dT*dT*dT*d[5mC]*k[5mC]*k[5mC]*kA) [Compound 1197223]”, the “YAP1 (% UT)” value (Yap1 mRNA, percent of untreated control, modified oligonucleotides targeting SEQ ID NO: 1 and 2, Table 47) is reported as 11 % UT.
For “1198938 (kT*k[5mC]*dA*dG*dA*dT*dT*dT*dA*dG*dG*kA*dT*kG*d[5mC]*kA; antisense) [Compound 1198938]”, the “YAP1 (% UTC)” value [7] was 59 % UTC.
With “1198316 (kG*kG*kA*dA*dG*dA*dT*d[5mC]*dT*dG*dA*dA*kA*e[5mC]*kT*e[5mC]; antisense) [Compound 1198316]” the “YAP1 (% UT)” value (Table 48, Yap1 mRNA level relative to untreated control, modified oligonucleotides targeting SEQ ID NO.: 1 and 2) was 49 % UT.
With “1200793 (kA*kG*kT*dA*dT*mG*dT*dG*dG*d[5mC]*dA*dA*dT*kA*kA*kT; antisense) [Compound 1200793]” the “YAP1 (% UT)” value [8] was 31 % UT.
In the case of “1198652 (kT*kT*dT*dT*dA*d[5mC]*dA*dT*dT*dA*dG*dG*kA*eA*k[5mC]*eA; antisense) [Compound 1198652]”, the “YAP1 (% UTC)” value [4] is reported as 68 % UTC.
For “1198214 (kT*kA*dT*dA*dT*dT*dA*dG*dA*dG*dT*eA*eT*eG*kT*kG; antisense) [Compound 1198214]”, the “YAP1 (% UTC)” value [1] was 91 % UTC.
“1200862 (kT*kT*kT*dA*dA*mA*dG*dT*dG*dT*dA*dT*dG*kT*k[5mC]*kA; antisense) [Compound 1200862]” was tested, and the “YAP1 (% UT)” value [5] was 17 % UT.
With “1198507 (kT*kT*dA*dT*dA*dT*dG*dG*dT*dT*dT*eT*kG*eT*kG*eT; antisense) [Compound 1198507]” the “YAP1 (% UTC)” value [2] was 17 % UTC.
In the case of “1198821 (kT*k[5mC]*dT*dA*dT*dA*dT*dT*dA*dG*dA*kG*eT*kA*eT*kG; antisense) [Compound 1198821]”, the “YAP1 (% UT)” value [6] is reported as 62 % UT.
With “1198738 (kA*e[5mC]*kT*dG*dA*dG*dG*dT*dA*dT*dA*dA*e[5mC]*eT*kG*kG; antisense) [Compound 1198738]” the “YAP1 (% UTC)” value [4] was 38 % UTC.
For “1198547 (antisense kG*kG*kA*dA*dA*dT*dT*dG*dT*d[5mC]*dT*d[5mC]*kA*kT*kG*e[5mC]) [Compound 1198547]”, the “YAP1 (% UT)” value (Table 49, Yap1 mRNA level relative to untreated control, modified oligonucleotides targeting SEQ ID NO.: 1 and 2) was 27 % UT.
“1198928 (kG*kT*dG*d[5mC]*dT*dT*dT*dG*dG*dA*dA*kG*dA*kT*d[5mC]*kT; antisense) [Compound 1198928]” was tested, and the “YAP1 (% UTC)” value [7] was 28 % UTC.
“1198282 (kA*kG*dA*d[5mC]*dT*dA*dA*dG*dT*dA*dA*eG*eG*eT*kT*kT; antisense) [Compound 1198282]” was tested, and the “YAP1 (% UTC)” value [3] was 58 % UTC.
In the case of “1198382 (kT*dT*dA*dG*dA*dG*dT*dA*dT*dG*dT*kG*eG*k[5mC]*eA*kA; antisense) [Compound 1198382]”, the “YAP1 (% UTC)” value (Table 39, SNU-449 cells, 10,000 cells per well, free uptake, 2,000 nM oligonucleotide, approx. 48 hours, RTS36584, normalized to RIBOGREEN, Yap1 mRNA relative to untreated control) is reported as 19 % UTC.
“1095510 (antisense k[5mC]*kT*dG*dA*dG*dG*dT*dA*dT*dA*dA*k[5mC]*dT*kG*dG*kG) [Compound 1095510]” was tested, and the “YAP1 (% UTC)” value [7] was 35 % UTC.
For “1197254 (antisense kT*kT*kA*dG*mG*dA*dT*dG*d[5mC]*dA*dT*dG*dG*kT*kT*kT) [Compound 1197254]”, the “YAP1 (% UT)” value [8] was 51 % UT.
